Data taken from patent publication US8841257B2, “Inhibitors of STAT3 and uses thereof” (Board of Regents, The University of Texas System, priority 2009, dated 2014).
Entries after “also recorded” stand apart in the source; their conditions may differ.

biological target: T1, STAT3 (Homo sapiens, UniProt P40763); experiment: Inhibition of STAT3 phosphorylation in BT20 breast tumor cells (western blot); format: cell-based; parameters: endogenous in cells; host or cells: BT20 breast tumor cells; conditions: 5 μM; BT-20 cells
Protocol: Inhibition of STAT3 in BT20 Breast Tumor Cells. General procedure: 35 mm petri dishes were plated with 300,000 BT20 cells in 2 mL RPMI1640 media containing 10% FBS, […], streptomycin, and glutamine. Prodrugs were dissolved in DMSO and were added to the cells with fresh media at varying concentrations. After 2 h the cells were washed with ice cold phosphate buffered saline. Washed cells were treated with lysis buffer (50 mM Hepes, pH 7.4, 150 mM NaCl, 1.5 mM MgCl2, 1 mM EGTA, 100 mM NaF, 10 mM sodium pyrophosphate, 10% glycerol, 1% Triton X-100, 1 mM PMSF, 1 mM Na3VO4, 10 μg/mL leupeptin and 10 μg/mL aprotinin). Cell-free detergent extracts were centrifuged at 15,000 rpm in a microcentriguge for 30 min at 4° C. and the protein concentrations of the supernatants determined. Aliquots containing 12 μg of protein were separated on 8% SDS-PAGE and were transferred to PVDF filters. The filters were blocked with 5% bovine serum albumin and were probed with pStat3^Y705 antibody followed by secondary antibody, whose signal was detected with an enhanced chemiluminescence kit (ECL, Amersham, Chicago, Ill.). Filters were stripped with stripping buffer (62.5 mM Tris, pH 6.8, 2% SDS, and 0.1 M 2-mercaptoethanol) at 50° C. for 30 min. Filters were then probed with total Stat3 antibody and visualized with chemiluminescence as above.
Because DMSO is toxic, other formulations were evaluated for potential use in animal models. The compound of Example 1 was dissolved in EtOH, 20% (w/v) Trappsol (hydroxypropyl β-cyclodextran, pharmaceutical grade), or a liposomal formulation to a concentration of 5 mM. These formulations were given to cells at 0.1, 0.5, and 5 μM concentrations. At two hours, cells were lysed and pSTAT3 levels were determined by Western Blot (FIG. 3). Different formulations have little effect on inhibition of STAT3. The compound of Example 1 was dissolved in DMSO, EtOH, Trappsol, or as a 10 mol % mixture in dimyristoylphosphatidyl choline and applied to BT20 cell in culture. After two hours, cells were lysed and pSTAT3 levels determined by Western blot. To prepare liposomes a solution of 1.0 mg of the compound of Example 1, 7.2 mg of DMPC, 0.41 mg of Tween 20 in 1.0 mL of tert-butanol was lyophilized. A control lipid formulation of 7.2 mg of DMPC and 0.41 mg of Tween 20 in 1.0 mL of tert-butanol was lyophilized. These samples were mixed with 236 μL of H2O and were vortexed and sonicated for 5 min.
The compounds are selective for STAT3 over STAT1 in BT20 breast tumor cells. BT20 cells prepared as above and were treated with 5 μM of the compound of Example 1 for two hours then were treated with 25 ng/mL of interferon γ (IFNγ). […] (FIG. 4, bottom panel).
Time course of inhibition of STAT3 phosphorylation in BT20 cells. BT20 cells were plated as above and treated with the compounds from Examples 1 and 6 and western blots were performed at varying time intervals.

T1 sequence (P40763 whole entry): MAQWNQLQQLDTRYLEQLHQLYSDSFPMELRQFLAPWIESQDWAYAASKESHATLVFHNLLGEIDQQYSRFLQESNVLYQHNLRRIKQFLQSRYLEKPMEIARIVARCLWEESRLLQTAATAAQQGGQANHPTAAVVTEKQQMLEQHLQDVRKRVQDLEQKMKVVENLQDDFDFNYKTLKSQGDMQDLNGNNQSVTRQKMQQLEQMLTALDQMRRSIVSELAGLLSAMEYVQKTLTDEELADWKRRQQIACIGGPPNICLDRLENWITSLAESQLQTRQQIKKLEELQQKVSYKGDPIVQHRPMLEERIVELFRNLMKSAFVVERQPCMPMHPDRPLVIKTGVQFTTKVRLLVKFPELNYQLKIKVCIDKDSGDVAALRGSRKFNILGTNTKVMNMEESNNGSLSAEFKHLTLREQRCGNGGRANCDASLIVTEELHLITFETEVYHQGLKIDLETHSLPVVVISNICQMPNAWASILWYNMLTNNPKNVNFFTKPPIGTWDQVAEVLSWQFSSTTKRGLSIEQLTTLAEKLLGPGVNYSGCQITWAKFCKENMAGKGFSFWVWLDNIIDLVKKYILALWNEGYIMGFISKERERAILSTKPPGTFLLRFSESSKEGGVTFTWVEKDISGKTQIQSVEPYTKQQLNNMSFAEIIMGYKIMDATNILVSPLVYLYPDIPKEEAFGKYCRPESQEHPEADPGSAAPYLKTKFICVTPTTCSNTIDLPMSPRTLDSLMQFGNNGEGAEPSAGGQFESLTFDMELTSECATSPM

| SMILES | phosphorylation of STAT3 at the indicated time points |
| --- | --- |
| C/C(=C\C(=O)N[C@H]1CCc2cccc3c2N(C1=O)[C@H](C(=O)N[C@H](C)CCC(N)=O)C3)c1ccc(OP(=O)(OCOC(=O)C(C)(C)C)OCOC(=O)C(C)(C)C)cc1 [Example 6, (2E)-3-[4-[[bis[(2,2-dimethyl-1-oxopropoxy)methoxy]phosphinyl]oxy]phenyl]-but-2-enoyl-Haic-(R)-4-aminopentamide] | inhibit the phosphorylation of STAT3 |

biological target: T1, STAT3; experiment: Inhibition of Stat3 tyrosine705 phosphorylation in MDA-MB-468 cells; format: cell-based; parameters: host or cells: MDA-MB-468 breast tumor cells; conditions: prodrug in DMSO, 2 h
Protocol: Inhibition of Stat3 tyrosine705 phosphorylation in MDA-MB-468 cells. MDA-MB-468 breast tumor cells (0.4×10^6) were plated onto 35 mm culture dishes and were allowed to grow overnight. Prodrugs were prepared as 10 mM stock solutions in DMSO and aliquots were added to the culture media to give the correct final concentrations. After 2 h the cells were washed with ice cold phosphate buffered saline. Washed cells were treated with lysis buffer (50 mM Hepes, pH 7.4, 150 mM NaCl, 1.5 mM MgCl2, 1 mM EGTA, 100 mM NaF, 10 mM sodium pyrophosphate, 10% glycerol, 1% Triton X-100, 1 mM PMSF, 1 mM Na3VO4, 10 μg/mL leupeptin and 10 μg/mL aprotinin). Cell-free detergent extracts were centrifuged at 15,000 rpm in a microcentriguge for 30 min at 4° C. and the protein concentrations of the supernatants determined. Aliquots containing 12 μg of protein were separated on 8% SDS-PAGE and were transferred to PVDF filters. The filters were blocked with 5% bovine serum albumin and were probed with pStat3^Y705 antibody followed by secondary antibody, whose signal was detected with an enhanced chemiluminescence kit (ECL, Amersham, Chicago, Ill.). Filters were stripped with stripping buffer (62.5 mM Tris, pH 6.8, 2% SDS, and 0.1 M 2-mercaptoethanol) at 50° C. for 30 min. Filters were then probed with total Stat3 antibody and visualized with chemiluminescence as above.

| SMILES | inhibition of Tyr705 phosphorylation of Stat3 (potency in words) |
| --- | --- |
| CCCC[C@H](NC(=O)/C=C(\C)c1ccc(C(F)(F)P(=O)(OCOC(=O)C(C)(C)C)OCOC(=O)C(C)(C)C)cc1)C(=O)N1C[C@@H]2CC2[C@@H]1C(=O)N[C@@H](CCC(N)=O)[C@@H](C)OCc1ccccc1 (stereo partly drawn) [Example 17, (2E)-3-[4-[[bis[(2,2-dimethyl-1-oxopropoxy)methoxy]phosphinyl]difluoromethyl]phenyl]-but-2-enoyl-norleucinyl-(2R,3S,4R)-methanoprolinyl-(4S,5R)-4-amino-5-benzyloxyhexamide] | very weak inhibitors; also recorded: much less potent |
| CCCC[C@H](NC(=O)/C=C(\C)c1ccc(C(F)(F)P(=O)(OCOC(=O)C(C)(C)C)OCOC(=O)C(C)(C)C)cc1)C(=O)N1C[C@@H]2CC2[C@@H]1C(=O)N[C@H](C)CCC(N)=O (stereo partly drawn) [Example 19, (2E)-3-[4-[[bis[(2,2-dimethyl-1-oxopropoxy)methoxy]phosphinyl]difluoromethyl]phenyl]-but-2-enoyl-norleucinyl-(2R,3S,4R)-methanoprolinyl-(R)-4-aminopentamide] | very weak inhibitors; also recorded: much less potent |
| CCCC[C@H](NC(=O)/C=C(\C)c1ccc(C(F)(F)P(=O)(OCOC(=O)C(C)(C)C)OCOC(=O)C(C)(C)C)cc1)C(=O)N1CCC[C@H]1C(=O)N[C@H](C)CCC(N)=O [Example 23, (2E)-3-[4-[[bis[(2,2-dimethyl-1-oxopropoxy)methoxy]phosphinyl]difluoromethyl]phenyl]-but-2-enoyl-norleucinyl-prolinyl-(R)-4-aminonentamide] | inhibit phosphorylation of STAT3 |
| CCCC[C@H](NC(=O)/C=C(\C)c1ccc(C(F)(F)P(=O)(OCOC(=O)C(C)(C)C)OCOC(=O)C(C)(C)C)cc1)C(=O)N1CC(F)(F)C[C@H]1C(=O)N[C@H](C)CCC(N)=O [Example 24, (2E)-3-[4-[[bis[(2,2-dimethyl-1-oxopropoxy)methoxy]phosphinyl]difluoromethyl]phenyl]-but-2-enoyl-norleucinyl-4,4-difluoroprolinyl-(R)-4-aminopentamide] | inhibit phosphorylation of STAT3 |
| CCCC[C@H](NC(=O)/C=C(\C)c1ccc(C(F)(F)P(=O)(OCOC(=O)C(C)(C)C)OCOC(=O)C(C)(C)C)cc1)C(=O)N1CC(C)(C)C[C@H]1C(=O)N[C@H](C)CCC(N)=O [Example 25, (2E)-3-[4-[[bis[(2,2-dimethyl-1-oxopropoxy)methoxy]phosphinyl]difluoromethyl]phenyl]-but-2-enoyl-norleucinyl-4,4-dimethylprolinyl-(R)-4-aminopentamide] | inhibit phosphorylation of STAT3 |
